In patent US9229008B2, “IL-8 level as a determinant of responsivity of a cancer to treatment” (Merck Sharp & Dohme Corp., priority 2008, dated 2016):

Test system: IL-8
Assay: IL-8 ELISA of growth media of A2058 melanoma cells
Type: cell-based, human
Conditions: A2058 B-RAF mutant melanoma cells, 8 hours exposure; DMSO control 21024
Description: Experiments were also performed wherein A2058 B-RAF mutant melanoma cells were treated with ERK inhibitor #1 (structure set forth herein), ERK inhibitor #2 (structure set forth herein), the PD MEK inhibitor
[drawing 23] or DMSO as a negative-control, for 8 hours.
These experiments were performed using IL-8 ELISAs from R&D Systems (Minneapolis, Minn.). Approximately 1×10^6 A2058 cells were plated onto 10 cm dishes containing 10 ml of growth media. The following day, compound was added and allowed to incubate for 8 hours. The media was removed from the plates, diluted 32× and used in the ELISA.

Cn1cnc2c(F)c(Nc3ccc(Br)cc3Cl)c(C(=O)NOCCO)cc21 [AR]
IL-8 levels in growth media: 1632 pg/mL

O=C(NOC[C@H](O)CO)c1ccc(F)c(F)c1Nc1ccc(F)cc1F [PD]
IL-8 levels in growth media: 2080 pg/mL
